Results taken from patent US11358940B2, “K-Ras modulators” (THE REGENTS OF THE UNIVERSITY OF CALIFORNIA, priority 2017, dated 2022).

How the values were obtained:
[1] = target: H95 site of KRas (Homo sapiens, UniProt P01116, H95C); assay: Thermal melting analysis; format: binding; details: FIG. 3
[2] = target: T1, Kras4b H95C (1-169) mutant protein (GppNHp-loaded) (Homo sapiens, UniProt P01116, H95C); assay: Disulfide tethering screen, dose response; format: binding; details: FIG. 2
T1 construct: we generated Kras4b H95C (1-169) mutant protein; made in house
Text: Disulfide tethering is a site-directed fragment-based approach to drug-discovery, which allows the screening low-affinity disulfide containing fragments against a native or introduced cysteine residue of a target protein. Fragment binding is reversible, and can be tuned to favor detection of only the strongest bound fragments through the use of increasing concentrations of a reductant (typically β-mecaptoethanol). This binding is not purely driven by reactivity; it is influenced by protein/ligand interactions and is independent of pKa or surface exposure. Bound fragments are detected by mass spectrometry and provide a lead into the drug discovery process.
To target H95 specifically, we generated Kras4b H95C (1-169) mutant protein, and used it (GppNHp-loaded), to search for compounds that could bind to active KRas in close proximity to H95. We performed a tethering screen of a disulfide containing fragment library at the University of California San Francisco.

[3] = target: T2, KRas H95C (1-169) (Homo sapiens, UniProt P01116, H95C); assay: MALDI-TOF analysis of KRas H95C reacted with compound; format: binding; details: reacted for 24 h
T2 construct: we generated Kras4b H95C (1-169) mutant protein; made in house
Text: Next, we reacted all three epoxides synthesized (structures depicted in FIG. 10A) with KRas H95C (1-169) to investigate reactivity at that site.
Single enantiomers of FNL-0012, compounds […] and FNL-0044 (R), then corresponding single enantiomers of FNL-0030, compounds FNL-0043 (S) and FNL-0045 (R), were synthesized (FIG. 14A). These enantiomers were investigated using a MALDI-TOF MS screen using KRAS4b (1-169) H95C, and also cell-based assays.

[4] = target: farnesylated and carboxymethylated KRas (FMe-KRas) (Homo sapiens, UniProt P01116); assay: MALDI-TOF analysis of labeling of fully processed KRas; format: binding
[5] = tested on: HupT4 pancreas carcinoma cells; assay: Growth arrest in HupT4 cells; format: cell-based; details: 24 h
Experimental: (§1) Cell viability in the presence of compounds (discussed in examples above) was measured using CellTiter-Glo (Promega). Cells were plated in black-walled 384-well plates (Greiner, 781091) at densities in accordance with their doubling time (for MEFs typically 1,000 cells/well in 20 μl), using the Multidrop Combi Reagent Dispenser (Thermo). They were then incubated overnight at 37° C. in a humidified atmosphere of 5% CO2 prior to compound addition.
(§2) Compound and dimethylsulfoxide (DMSO) addition to microplates was performed using the Access Laboratory Workstation (Labcyte) and Echo 555 (Labcyte) liquid handler. Source plates with compounds and DMSO were prepared and the Echo 555 was used to transfer 50 nL of compound, DMSO, or both to the appropriate wells. […] of complete culture medium was added to all wells of the microplate after compound addition. The highest final concentration in each assay was 100 μM or 50 μM with between seven to 12 dilutions. The final DMSO concentration in all wells was 0.2%.
[…] All conditions were done in triplicates and experiments performed at least thrice. Cellular ATP levels (an indicator of cell count) were determined with CellTiter-Glo (CTG, Promega G7573) luminescence assay, using an EnVision Plate Reader (PerkinElmer).
Plates were harvested at two time points. […] Growth inhibition was calculated by: […]

[6] = tested on: KRAS4b G12D, KRAS4b G12V, HRas WT/P53-, and SUIT-2; assay: Cell proliferation experiments with analogues of FNL-0045; format: cell-based; details: FIG. 15B
Experimental: as §1
as §2, with “The highest final concentration in each assay was 100 μM or 50 μM with between seven to 12 dilutions. The final DMSO concentration in all wells was 0.2%.” left out
Cells were incubated with compounds for 72 h. […] Cellular ATP levels (an indicator of cell count) were determined with CellTiter-Glo (CTG, Promega G7573) luminescence assay, using an EnVision Plate Reader (PerkinElmer).
Plates were harvested at two time points. […] After 72 h incubation, the compound treated plates were harvested using CTG reagent and luminescence read using the EnVision giving control growth (C) and compound treated well (T72) measurements. Growth inhibition was calculated by: […]

Sequence of H95 site of KRas (P01116 1-188 isoform P01116-2 H95C): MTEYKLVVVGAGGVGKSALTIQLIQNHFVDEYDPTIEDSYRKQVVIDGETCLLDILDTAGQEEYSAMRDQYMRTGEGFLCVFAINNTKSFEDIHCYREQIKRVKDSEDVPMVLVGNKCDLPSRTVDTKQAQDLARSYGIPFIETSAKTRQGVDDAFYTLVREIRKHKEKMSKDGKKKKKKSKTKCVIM
T1 sequence (P01116 1-169 isoform P01116-2 H95C): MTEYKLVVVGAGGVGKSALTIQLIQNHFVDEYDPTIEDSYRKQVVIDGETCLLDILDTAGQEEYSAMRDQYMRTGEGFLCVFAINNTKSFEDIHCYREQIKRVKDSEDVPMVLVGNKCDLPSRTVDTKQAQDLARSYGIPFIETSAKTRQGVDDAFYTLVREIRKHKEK
T2 sequence (P01116 1-169 isoform P01116-2 H95C): as above
Sequence of farnesylated and carboxymethylated KRas (FMe-KRas) (P01116 2-185 isoform P01116-2 limits assumed): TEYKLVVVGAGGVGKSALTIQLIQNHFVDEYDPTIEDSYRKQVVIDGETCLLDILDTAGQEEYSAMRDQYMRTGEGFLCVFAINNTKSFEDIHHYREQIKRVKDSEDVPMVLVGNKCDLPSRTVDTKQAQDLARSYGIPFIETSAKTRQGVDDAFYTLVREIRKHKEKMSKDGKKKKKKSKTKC

shift in Tm upon fragment binding [1] | binding at H95 site of KRas in dose response experiments [2] | SMILES | further results
significant shifts in Tm | strong binders | CN(C)CCSSCCNC(=O)Cc1ccc(Cl)c(Cl)c1 [compound 917105] | 
 |  | O=C(Cc1ccc(Cl)c(Cl)c1)NCC1CO1 (stereo not shown) [FNL-0010] | covalent modification of C95 [3]: covalently labeled C95; covalent labeling of FMe-KRas [4]: did not label; growth arrest / cell proliferation [5]: did not affect cell proliferation
significant shifts in Tm | strong binders | CN(C)CCSSCCn1cc(CNC(=O)c2n[nH]c3ccccc23)nn1 [compound 966854] | 
significant shifts in Tm | strong binders | Cc1ccc(S(=O)(=O)c2cn(CCSSCCN(C)C)nn2)cc1 [compound 966844] | 
 |  | Cn1nc(C(=O)NCc2cn(C[C@@H]3CO3)nn2)c2ccccc21 [FNL-0088] | proliferation assay, R enantiomer compared with S enantiomer FNL-0090 [6]: compared favorably
